Where two headings read alike, the source gives them in different places.
Key:
rice = experiment: Test B flooded paddy test; type: in vivo, Oryza sativa; conditions: Oryza sativa, 336 h, 1000 g ai/ha, visual rating, scale 0 to 100 (0 no effect, 100 complete control), 13 to 15 days, read-out: Rice plant response rating
How it was run: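 Each value is a visual 0–100 response rating taken against controls 13 to 15 days after treatment in the greenhouse. Plants received formulated chemical postemergence at the 1- to 4-leaf stage or, in flooded paddy, at the 2-leaf stage.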

barnyardgrass [1] = experiment: Test B pre-/postemergence herbicide test; type: in vivo, Echinochloa crus-galli; conditions: Echinochloa crus-galli; for pest or weed control at 500 g/ha: 500 g ai/ha; for pest or weed control at 125 g/ha: 125 g ai/ha
How it was run: (§1)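 Formulation: non-phytotoxic solvent mix with surfactant. Timing: preemergence on seed and postemergence on 2–18 cm plants, applied concurrently. Readout after 13–15 d greenhouse: visual 0–100 control rating against controls.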

[2] = test system: small flower umbrella sedge; experiment: Test B flooded paddy test; type: in vivo, Cyperus difformis; conditions: Cyperus difformis, 336 h, 1000 g ai/ha, visual rating, scale 0 to 100 (0 no effect, 100 complete control), 13 to 15 days, read-out: Sedge, Umbrella plant response rating
How it was run: (§2)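 Scale 0–100: zero equals no visible effect, 100 complete control, judged by eye relative to controls. Timing: 13 to 15 days in greenhouse post-treatment. Growth stage at spraying: two leaves (paddy) or one to four leaves, 2–18 cm (postemergence).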

lambsquarters = experiment: Test B pre-/postemergence herbicide test; type: in vivo, Chenopodium album; conditions: Chenopodium album, 336 h; for pest or weed control at 500 g/ha: 500 g ai/ha; for pest or weed control at 125 g/ha: 125 g ai/ha
How it was run: (§3)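 Evaluation is visual, comparing treated with control plants on a scale where 0 means no effect and 100 means full control. Treatments were preemergence, or postemergence on seedlings 2–18 cm tall, and held 13–15 days in the greenhouse.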

barnyardgrass [3] = experiment: Test B flooded paddy test; type: in vivo, Echinochloa crus-galli; conditions: Echinochloa crus-galli, 336 h, 1000 g ai/ha, visual rating, scale 0 to 100 (0 no effect, 100 complete control), 13 to 15 days, read-out: Barnyardgrass plant response rating
How it was run: as §2

corn = experiment: Test B pre-/postemergence herbicide test; type: in vivo, Zea mays; conditions: Zea mays
How it was run: as §3

wild oat = experiment: Test B postemergence herbicide test; type: in vivo, Avena fatua; conditions: scale 0 (no effect) to 100 (complete control)
How it was run: (§4)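 Read-out: visual comparison with controls, scored 0 to 100, where 100 means complete control and 0 no effect. Formulated chemicals were applied postemergence to plants 2–18 cm tall (1- to 4-leaf), or to flooded-paddy plants at the 2-leaf stage, then held 13 to 15 days under glass.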

giant foxtail = experiment: Test B pre-/postemergence herbicide test; type: in vivo, Setaria faberi; conditions: Setaria faberi, 336 h; for pest or weed control at 500 g/ha: 500 g ai/ha; for pest or weed control at 125 g/ha: 125 g ai/ha
How it was run: as §3

morningglory = experiment: Test B pre-/postemergence herbicide test; type: in vivo, Ipomoea coccinea; conditions: Ipomoea, 336 h; for pest or weed control at 500 g/ha: 500 g ai/ha; for pest or weed control at 125 g/ha: 125 g ai/ha
How it was run: as §1

large crabgrass = experiment: Test B pre-/postemergence herbicide test; type: in vivo, Digitaria sanguinalis; conditions: Digitaria sanguinalis; for pest or weed control at 500 g/ha: 500 g ai/ha; for pest or weed control at 125 g/ha: 125 g ai/ha
How it was run: as §3

cocklebur = experiment: Test B pre-/postemergence herbicide test; type: in vivo, Xanthium strumarium; conditions: Xanthium strumarium; for pest or weed control at 500 g/ha: 500 g ai/ha; for pest or weed control at 125 g/ha: 125 g ai/ha
How it was run: as §1

pigweed = experiment: Test B pre-/postemergence herbicide test; type: in vivo, Amaranthus retroflexus; conditions: Amaranthus retroflexus, 336 h; for pest or weed control at 500 g/ha: 500 g ai/ha; for pest or weed control at 125 g/ha: 125 g ai/ha
How it was run: as §3

Surinam grass = experiment: Test B pre-/postemergence herbicide test; type: in vivo, Urochloa decumbens; conditions: Urochloa decumbens; for pest or weed control at 500 g/ha: 500 g ai/ha; for pest or weed control at 125 g/ha: 125 g ai/ha
How it was run: as §3

wheat = experiment: Test B postemergence herbicide test; type: in vivo, Triticum aestivum; conditions: scale 0 (no effect) to 100 (complete control)
How it was run: as §4

velvetleaf = experiment: Test B pre-/postemergence herbicide test; type: in vivo, Abutilon theophrasti; conditions: Abutilon theophrasti, 336 h; for pest or weed control at 500 g/ha: 500 g ai/ha; for pest or weed control at 125 g/ha: 125 g ai/ha
How it was run: as §3

[4] = Postemergence, 500 g ai/ha, visual rating after 13 to 15 days

CCn1nc(C(C)(C)C)cc1C(=O)Nc1cccc2c1CN(C)C2=O [Compound 55, N-(2,3-dihydro-2-methyl-1-oxo-1H-isoindol-4-yl)-3-(1,1-dimethylethyl)-1-ethyl-1H-pyrazole-5-carboxamide]
30%: Corn plant response rating (crop injury, 0 = no effect, 100 = complete kill) at 500 g/ha (corn; post-emergence, Postemergence, 500 g ai/ha, visual rating after 13 to 15 days, scale 0 (no effect) to 100 (complete control)) | pest or weed control at 500 g/ha (velvetleaf; pre-emergence, Preemergence, scale 0 to 100, read-out: Velvetleaf plant response rating)
20%: plant injury at 125 g/ha (corn; post-emergence, postemergence, 125 g ai/ha, visual rating, scale 0 (no effect) to 100 (complete control), read-out: Corn plant response rating) | plant injury at 500 g/ha (corn; pre-emergence, Preemergence, 500 g ai/ha, scale 0 to 100, read-out: Corn plant response rating) | pest or weed control at 125 g/ha (velvetleaf; post-emergence, postemergence, visual rating, scale 0 (no effect) to 100 (complete control), read-out: Velvetleaf plant response rating)
40%: pest or weed control at 500 g/ha (cocklebur; post-emergence, Postemergence, visual rating after 13 to 15 days, scale 0 (no effect) to 100 (complete control), read-out: Plant response rating, Cocklebur) | pest or weed control at 500 g/ha (pigweed; post-emergence, Postemergence, visual rating after 13 to 15 days, scale 0 (no effect) to 100 (complete control), read-out: Plant response rating, Pigweed) | pest or weed control at 500 g/ha (velvetleaf; post-emergence, Postemergence, visual rating after 13 to 15 days, scale 0 (no effect) to 100 (complete control), read-out: Plant response rating, Velvetleaf)
10%: pest or weed control at 500 g/ha (barnyardgrass [1]; post-emergence, Postemergence, visual rating after 13 to 15 days, scale 0 (no effect) to 100 (complete control), read-out: Plant response rating, Barnyardgrass) | pest or weed control at 125 g/ha (barnyardgrass [1]; post-emergence, postemergence, visual rating, scale 0 (no effect) to 100 (complete control), read-out: Barnyardgrass plant response rating) | pest or weed control at 125 g/ha (wild oat; Avena fatua, post-emergence, 336 h, postemergence, 125 g ai/ha, visual rating, read-out: Oat, Wild plant response rating) | pest or weed control at 500 g/ha (giant foxtail; post-emergence, Postemergence, visual rating after 13 to 15 days, scale 0 (no effect) to 100 (complete control), read-out: Plant response rating, Foxtail, Giant) | pest or weed control at 500 g/ha (morningglory; post-emergence, Postemergence, visual rating after 13 to 15 days, scale 0 (no effect) to 100 (complete control), read-out: Plant response rating, Morningglory) | pest or weed control at 125 g/ha (morningglory; post-emergence, postemergence, visual rating, scale 0 (no effect) to 100 (complete control), read-out: Morningglory plant response rating) | pest or weed control at 500 g/ha (morningglory; pre-emergence, Preemergence, scale 0 to 100, read-out: Morningglory plant response rating) | pest or weed control at 500 g/ha (large crabgrass; post-emergence, Postemergence, visual rating after 13 to 15 days, scale 0 (no effect) to 100 (complete control), read-out: Plant response rating, Crabgrass, Large) | pest or weed control at 125 g/ha (large crabgrass; post-emergence, postemergence, visual rating, scale 0 (no effect) to 100 (complete control), read-out: Crabgrass, Large plant response rating) | pest or weed control at 125 g/ha (cocklebur; post-emergence, postemergence, visual rating, scale 0 (no effect) to 100 (complete control), read-out: Cocklebur plant response rating) | pest or weed control at 500 g/ha (cocklebur; pre-emergence, Preemergence, scale 0 to 100, read-out: Cocklebur plant response rating) | pest or weed control at 125 g/ha (pigweed; post-emergence, postemergence, visual rating, scale 0 (no effect) to 100 (complete control), read-out: Pigweed plant response rating) | pest or weed control at 500 g/ha (Surinam grass; post-emergence, Postemergence, visual rating after 13 to 15 days, scale 0 (no effect) to 100 (complete control), read-out: Plant response rating, Surinam Grass) | pest or weed control at 125 g/ha (Surinam grass; post-emergence, postemergence, visual rating, scale 0 (no effect) to 100 (complete control), read-out: Surinam Grass plant response rating) | plant injury at 125 g/ha (wheat; Triticum aestivum, post-emergence, 336 h, postemergence, 125 g ai/ha, visual rating, read-out: Wheat plant response rating)
60%: pest or weed control at 125 g/ha (giant foxtail; pre-emergence, preemergence, 0 to 100 scale, 0 is no effect, 100 is complete control, read-out: Plant response rating, Foxtail, Giant)
100%: pest or weed control at 500 g/ha (barnyardgrass [1]; pre-emergence, Preemergence, scale 0 to 100, read-out: Barnyardgrass plant response rating) | pest or weed control at 500 g/ha (lambsquarters; pre-emergence, Preemergence, scale 0 to 100, read-out: Lambsquarters plant response rating) | pest or weed control at 500 g/ha (giant foxtail; pre-emergence, Preemergence, scale 0 to 100, read-out: Foxtail, Giant plant response rating) | pest or weed control at 500 g/ha (large crabgrass; pre-emergence, Preemergence, scale 0 to 100, read-out: Crabgrass, Large plant response rating) | pest or weed control at 500 g/ha (pigweed; pre-emergence, Preemergence, scale 0 to 100, read-out: Pigweed plant response rating)
80%: pest or weed control at 125 g/ha (barnyardgrass [1]; pre-emergence, preemergence, 0 to 100 scale, 0 is no effect, 100 is complete control, read-out: Plant response rating, Barnyardgrass) | pest or weed control at 1000 g/ha [2] | pest or weed control at 125 g/ha (pigweed; pre-emergence, preemergence, 0 to 100 scale, 0 is no effect, 100 is complete control, read-out: Plant response rating, Pigweed) | pest or weed control at 500 g/ha (Surinam grass; pre-emergence, Preemergence, scale 0 to 100, read-out: Surinam Grass plant response rating)
10: Plant response rating, Wheat (wheat; [4])
70%: plant injury at 1000 g/ha (rice) | pest or weed control at 500 g/ha (lambsquarters; post-emergence, Postemergence, visual rating after 13 to 15 days, scale 0 (no effect) to 100 (complete control), read-out: Plant response rating, Lambsquarters) | pest or weed control at 125 g/ha (lambsquarters; post-emergence, postemergence, visual rating, scale 0 (no effect) to 100 (complete control), read-out: Lambsquarters plant response rating) | pest or weed control at 125 g/ha (lambsquarters; pre-emergence, preemergence, 0 to 100 scale, 0 is no effect, 100 is complete control, read-out: Plant response rating, Lambsquarters)
0%: Corn plant response rating (crop injury, 0 = no effect, 100 = complete kill) at 125 g/ha (corn; pre-emergence, preemergence, 125 g ai/ha, 0 to 100 scale, 0 is no effect, 100 is complete control) | pest or weed control at 125 g/ha (giant foxtail; post-emergence, postemergence, visual rating, scale 0 (no effect) to 100 (complete control), read-out: Foxtail, Giant plant response rating) | pest or weed control at 125 g/ha (morningglory; pre-emergence, preemergence, 0 to 100 scale, 0 is no effect, 100 is complete control, read-out: Plant response rating, Morningglory) | pest or weed control at 125 g/ha (cocklebur; pre-emergence, preemergence, 0 to 100 scale, 0 is no effect, 100 is complete control, read-out: Plant response rating, Cocklebur) | pest or weed control at 125 g/ha (velvetleaf; pre-emergence, preemergence, 0 to 100 scale, 0 is no effect, 100 is complete control, read-out: Plant response rating, Velvetleaf)
20: Plant response rating, Oat, Wild (wild oat; [4])
50%: pest or weed control at 125 g/ha (Surinam grass; pre-emergence, preemergence, 0 to 100 scale, 0 is no effect, 100 is complete control, read-out: Plant response rating, Surinam Grass)
90%: pest or weed control at 1000 g/ha (barnyardgrass [3]) | pest or weed control at 125 g/ha (large crabgrass; pre-emergence, preemergence, 0 to 100 scale, 0 is no effect, 100 is complete control, read-out: Plant response rating, Crabgrass, Large)
